These results are taken from US20160184439A1, “ORALLY DISINTEGRATING FILM PREPARATION CONTAINING DONEPEZIL OR PHARMACEUTICALLY ACCEPTABLE SALT THEREOF, AND PREPARATION METHOD THEREFOR” (SEOUL PHARMA. CO., LTD., priority 2013, published 2016).

This data set is described as follows: Characteristic feature of the main excipients. The note with it: effect of excipient in donepezil film. The source says:
The characteristic feature of the main excipients of the present invention—In order to achieve the object of the above formulation research, it can be seen that the main excipients of the below Table 3 are essential elements.

`Cc1cc(C(C)(C)C)c(O)c(C(C)(C)C)c1` [Dibuthylhydroxytoluene]: the “Occurrence of the impurity” value was “Inhibition”.

For the compound `CC(O)COC[C@H]1O[C@@H]2O[C@H]3[C@H](O)[C@@H](O)[C@@H](O[C@H]4[C@H](O)[C@@H](O)[C@@H](O[C@H]5[C@H](O)[C@@H](O)[C@@H](O[C@H]6[C@H](O)[C@@H](O)[C@@H](O[C@H]7[C@H](O)[C@@H](O)[C@@H](O[C@H]8[C@H](O)[C@@H](O)[C@@H](O[C@H]1[C@H](O)[C@H]2O)O[C@@H]8COCC(C)O)O[C@@H]7COCC(C)O)O[C@@H]6COCC(C)O)O[C@@H]5COCC(C)O)O[C@@H]4COCC(C)O)O[C@@H]3COCC(C)O` (some centres unmarked) [Hydroxypropylbetadex], the “Occurrence of the impurity” value was “Inhibition”.
